In article PMC8245078, “Development of novel benzofuran-isatin conjugates as potential antiproliferative agents with apoptosis inducing mechanism in Colon cancer” (Journal of Enzyme Inhibition and Medicinal Chemistry, 2021):

Key:
HL60(TB) = type: cell-based
K-562 = type: cell-based; conditions: K-562, five-dose test
HOP-92 = type: cell-based, human; conditions: HOP-92, five-dose test
NCI-H226 = type: cell-based; conditions: Homo sapiens, NCI-H226, five-dose test
HCC-2998 = type: cell-based; conditions: HCC-2998, five-dose test
HCT-15 = type: cell-based; conditions: HCT-15, five-dose test
KM12 = type: cell-based; conditions: KM12, five-dose test
SF-268 = type: cell-based; conditions: SF-268, five-dose test
SF-295 = type: cell-based, human; conditions: SF-295, five-dose test
SF-539 = type: cell-based, human; conditions: SF-539, five-dose test
SNB-19 = type: cell-based; conditions: SNB-19, five-dose test
SNB-75 = type: cell-based; conditions: SNB-75, five-dose test
LOX IMVI = type: cell-based; conditions: five-dose test
MALME-3M = type: cell-based, human; conditions: five-dose test
MDA-MB-435 = type: cell-based; conditions: MDA-MB-435, five-dose test
SK-MEL-2 = type: cell-based; conditions: SK-MEL-2, five-dose test
SK-MEL-5 = type: cell-based; conditions: Homo sapiens; SK-MEL-5, five-dose test
UACC-62 = type: cell-based; conditions: UACC-62, five-dose test
IGROV1 = type: cell-based; conditions: Homo sapiens, IGROV-1; IGROV1, five-dose test
OVCAR-5 = type: cell-based; conditions: Homo sapiens; OVCAR-5, five-dose test; read-out: LC50 (the source's name)
OVCAR-8 = type: cell-based; conditions: OVCAR-8, five-dose test
NCI/ADR-RES = type: cell-based; conditions: Homo sapiens, five-dose test
786-0 = type: cell-based, human; conditions: 786-0, five-dose test
A498 = type: cell-based, human; conditions: A498, five-dose test
TK-10 = type: cell-based, human; conditions: TK-10, five-dose test
DU-145 = type: cell-based; conditions: Homo sapiens; DU-145, five-dose test
BT-549 = type: cell-based; conditions: BT-549, five-dose test
T-47D = type: cell-based; conditions: Homo sapiens, T47D, five-dose test
CNS Cancer subpanel = type: cell-based, human
Ovarian Cancer subpanel = type: cell-based, human
Renal Cancer subpanel = type: cell-based, human
Breast Cancer subpanel = type: cell-based, human
[1] = Homo sapiens, read-out: LC50 (the source's name)

`COc1ccc2c(c1)/C(=N/NC(=O)c1oc3ccccc3c1C)C(=O)N2` [Compound 5d] was tested, and the GI50 (HL60(TB); Homo sapiens, HL-60, five-dose test) was > 100 µM, the CC50 (HL60(TB); Homo sapiens, HL-60, five-dose test, read-out: LC50 (the source's name)) was > 100 µM and the TGI (HL60(TB); five-dose test) was >100 µM. For the same molecule, the CC50 (K-562; Homo sapiens, K562, read-out: LC50 (the source's name)) was > 100 µM, the TGI (K-562) was >100 µM and the TGI (HOP-92) was 3.98 µM. The GI50 (HOP-92; Homo sapiens) was 1.84 µM, the GI50 (NCI-H226) was 2.19 µM and the CC50 (NCI-H226; read-out: LC50 (the source's name)) was > 100 µM. For the same molecule, the TGI (HCC-2998) was >100 µM, the CC50 (HCC-2998; [1]) was > 100 µM and the TGI (HCT-15) was >100 µM. For the same molecule, the LC50 (HCT-15; Homo sapiens) was > 100 µM, the CC50 (KM12; [1]) was > 100 µM and the TGI (KM12) was >100 µM. For the same molecule, the GI50 (SF-268; Homo sapiens) was 5.18 µM, the CC50 (SF-268; [1]) was > 100 µM and the TGI (SF-268) was 56.8 µM. For the same molecule, the GI50 (SF-295; Homo sapiens) was 2.03 µM, the TGI (SF-295) was 4.13 µM and the GI50 (SF-539; Homo sapiens) was 1.66 µM. The TGI (SF-539) was 3.16 µM, the GI50 (SNB-19; Homo sapiens) was 3.45 µM and the CC50 (SNB-19; [1]) was > 100 µM. The TGI (SNB-19) was 16.2 µM, the GI50 (SNB-75; Homo sapiens) was 1.25 µM and the CC50 (SNB-75; [1]) was 6.04 µM. For the same molecule, the TGI (SNB-75) was 2.75 µM, the GI50 (LOX IMVI; Homo sapiens) was 3.16 µM and the CC50 (LOX IMVI; [1]) was > 100 µM. For the same molecule, the TGI (LOX IMVI) was >100 µM, the GI50 (MALME-3M; Homo sapiens) was 1.81 µM and the TGI (MALME-3M) was 3.79 µM. The CC50 (MDA-MB-435; [1]) was > 100 µM, the TGI (MDA-MB-435) was >100 µM and the GI50 (SK-MEL-2; Homo sapiens) was 2.56 µM. The LC50 (SK-MEL-2; Homo sapiens) was 54.7 µM, the TGI (SK-MEL-2) was 6.62 µM and the LC50 (50% lethal concentration) (SK-MEL-5) was > 100 µM. For the same molecule, the GI50 (UACC-62; Homo sapiens) was 5.19 µM, the CC50 (UACC-62; [1]) was > 100 µM and the TGI (UACC-62) was >100 µM. For the same molecule, the GI50 (IGROV1) was 2.1 µM, the LC50 (IGROV1) was > 100 µM and the CC50 (OVCAR-5) was > 100 µM. For the same molecule, the GI50 (OVCAR-8; Homo sapiens) was 3.22 µM, the LC50 (OVCAR-8; Homo sapiens) was > 100 µM and the TGI (OVCAR-8) was >100 µM. The GI50 (NCI/ADR-RES) was 2.47 µM, the LC50 (NCI/ADR-RES) was > 100 µM and the TGI (786-0) was 3.84 µM. The GI50 (786-0; Homo sapiens) was 1.99 µM, the TGI (A498) was 4.04 µM and the GI50 (A498; Homo sapiens) was 1.63 µM. The GI50 (TK-10; Homo sapiens) was 2.32 µM, the TGI (TK-10) was 4.02 µM and the LC50 (DU-145) was > 100 µM. For the same molecule, the TGI (BT-549) was 33.7 µM, the GI50 (BT-549; Homo sapiens) was 5.38 µM and the LC50 (concentration causing 50% net cell kill) (BT-549; Homo sapiens) was > 100 µM. For the same molecule, the GI50 (T-47D) was 1.7 µM, the LC50 (T-47D) was > 100 µM and the GI50 (CNS Cancer subpanel; Homo sapiens, CNS Cancer subpanel, read-out: MG-MID (GI50 average of the subpanel)) was 2.6 µM. It also gave a Selectivity index (CNS Cancer subpanel; full panel MID / subpanel MID, CNS Cancer) of 0.96, a GI50 (Ovarian Cancer subpanel; Homo sapiens, Ovarian Cancer subpanel, read-out: MG-MID (GI50 average of the subpanel)) of 2.29 µM and a Selectivity index (Ovarian Cancer subpanel; full panel MID / subpanel MID, Ovarian Cancer) of 1.09. The GI50 (Renal Cancer subpanel; Homo sapiens, Renal Cancer subpanel, read-out: MG-MID (GI50 average of the subpanel)) was 1.98 µM, the Selectivity index (Renal Cancer subpanel; full panel MID / subpanel MID, Renal Cancer) was 1.26 and the GI50 (Breast Cancer subpanel; Homo sapiens, Breast Cancer subpanel, read-out: MG-MID (GI50 average of the subpanel)) was 2.83 µM. For the same molecule, the Selectivity index (Breast Cancer subpanel; full panel MID / subpanel MID, Breast Cancer) was 0.88, the GI50 (MDA-MB-468; Homo sapiens, MDA-MB-468) was 2.6 µM and the CC50 (MDA-MB-468; Homo sapiens, MDA-MB-468, read-out: LC50) was > 100 µM. The TGI (MDA-MB-468; MDA-MB-468, five-dose test) was 6.52 µM.
